Source: patent US10617690B2 (priority 2015, dated 2020)
Structures can show the parent of a compound that is named as a salt.

Assays:
JAK1 protein kinase = JAK1 protein kinase (Homo sapiens, UniProt P23458); experiment: biochemical; conditions: 38 uM ATP, 90 min
Experimental: In Vitro Activity Test of Jak1, Jak 2 and Jak 3 Kinase
Recombinant humanized JAK1, JAK2 and JAK3 […] were all purchased from Life technology. LANCE Ultra ULight™-JAK-1(Tyr1023) peptide and LANCE Eu-W1024 Anti-phosphotyrosine (PT66) were both purchased from PerkinElmer. Envision (PerkinElmer) was used to read a plate.
Three dilution of a test compound was prepared, and 11 final concentrations were obtained: 10 uM to 0.17 nM. Each concentration had two repeat wells. The content of DMSO in a detection reaction was 1%.
2 nM JAK1 protein kinase, 50 nM LANCE Ultra ULight™-JAK-1(Tyr1023) peptide, 38 uM ATP, 50 mM HEPES (pH7.5), 10 mM MgCl2, 1 mM EGTA, 2 mM DTT, and 0.01% BRIJ-35. Detection plate was White Proxiplate 384-Plus plate (PerkinElmer), the reaction was conducted for 90 min at room temperature, and reaction system was 10 ul.
10 ul detection reagent was added into the reaction plate, wherein the final concentration of LANCE Eu-W1024 Anti-phosphotyrosine (PT66) was 2 nM, the final concentration of EDTA was 10 mM, incubation was conducted for 60 min at room temperature, and the plate was read by the Envision.
The reading was converted into a suppression ratio as follow equation: (%)=([…])/(Max−Min)*100%. IC50 data was detected by 4 parametric curve fitting (Model 205 in XLFIT5, iDBS), see Table 1.

JAK2 protein kinase = JAK2 protein kinase (Homo sapiens, UniProt O60674); experiment: biochemical; conditions: 12 uM ATP, 60 min;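 note: recombinant human JAK2 with ULight-labelled JAK-1(Tyr1023) peptide substrate, phosphorylation detected by TR-FRET using Eu-labelled anti-phosphotyrosine antibody, 1% DMSO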
Chain of JAK2 protein kinase (O60674 whole entry): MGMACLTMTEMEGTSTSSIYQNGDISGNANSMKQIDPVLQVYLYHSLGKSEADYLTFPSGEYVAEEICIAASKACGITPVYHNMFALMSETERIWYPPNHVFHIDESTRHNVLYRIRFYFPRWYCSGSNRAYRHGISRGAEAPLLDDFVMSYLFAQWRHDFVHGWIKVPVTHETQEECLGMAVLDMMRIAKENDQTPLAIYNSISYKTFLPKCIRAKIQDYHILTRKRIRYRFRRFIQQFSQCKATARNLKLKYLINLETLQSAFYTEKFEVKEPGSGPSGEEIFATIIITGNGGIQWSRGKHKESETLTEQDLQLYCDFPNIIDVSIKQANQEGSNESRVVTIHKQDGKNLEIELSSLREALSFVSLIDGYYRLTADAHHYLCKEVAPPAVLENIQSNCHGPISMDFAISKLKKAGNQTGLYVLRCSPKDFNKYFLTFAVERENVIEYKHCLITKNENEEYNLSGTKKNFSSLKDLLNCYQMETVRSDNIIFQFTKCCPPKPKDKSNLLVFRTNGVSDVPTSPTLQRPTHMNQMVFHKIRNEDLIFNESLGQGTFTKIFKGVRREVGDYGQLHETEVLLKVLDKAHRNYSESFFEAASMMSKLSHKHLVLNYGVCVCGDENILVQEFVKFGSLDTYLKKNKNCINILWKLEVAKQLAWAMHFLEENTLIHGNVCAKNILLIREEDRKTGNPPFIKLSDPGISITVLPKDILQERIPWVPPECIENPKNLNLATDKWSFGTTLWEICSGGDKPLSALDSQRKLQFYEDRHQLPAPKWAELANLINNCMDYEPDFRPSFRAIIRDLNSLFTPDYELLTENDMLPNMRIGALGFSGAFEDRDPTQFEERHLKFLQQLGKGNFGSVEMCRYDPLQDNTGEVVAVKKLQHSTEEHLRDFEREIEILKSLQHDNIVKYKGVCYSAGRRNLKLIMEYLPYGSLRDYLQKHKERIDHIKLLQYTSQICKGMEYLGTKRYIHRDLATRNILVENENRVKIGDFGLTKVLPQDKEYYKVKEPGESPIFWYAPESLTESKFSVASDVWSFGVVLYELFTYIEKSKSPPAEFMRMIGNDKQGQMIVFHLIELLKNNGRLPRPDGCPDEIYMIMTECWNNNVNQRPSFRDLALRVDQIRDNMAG
Description: (§1) Recombinant humanized JAK1, JAK2 and JAK3 protease were all purchased from Life technology. LANCE Ultra ULight™-JAK-1(Tyr1023) peptide and LANCE Eu-W1024 Anti-phosphotyrosine (PT66) were both purchased from PerkinElmer. Envision (PerkinElmer) was used to read a plate.
(§2) The reading was converted into a suppression ratio as follow equation: (%)=(Min−Ratio)/(Max−Min)*100%.

JAK3 = molecular target: T1, JAK3 (Homo sapiens, UniProt P52333); experiment: In vitro activity test of JAK3 kinase (LANCE Ultra TR-FRET); format: biochemical;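 note: recombinant human JAK3 phosphorylating ULight-JAK-1(Tyr1023) peptide at 4 µM ATP, with 1% DMSO, detected by Eu-anti-phosphotyrosine TR-FRET on Envision and converted to percent inhibition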
T1 construct: purchased Life technology
T1 sequence (P52333 1-1124): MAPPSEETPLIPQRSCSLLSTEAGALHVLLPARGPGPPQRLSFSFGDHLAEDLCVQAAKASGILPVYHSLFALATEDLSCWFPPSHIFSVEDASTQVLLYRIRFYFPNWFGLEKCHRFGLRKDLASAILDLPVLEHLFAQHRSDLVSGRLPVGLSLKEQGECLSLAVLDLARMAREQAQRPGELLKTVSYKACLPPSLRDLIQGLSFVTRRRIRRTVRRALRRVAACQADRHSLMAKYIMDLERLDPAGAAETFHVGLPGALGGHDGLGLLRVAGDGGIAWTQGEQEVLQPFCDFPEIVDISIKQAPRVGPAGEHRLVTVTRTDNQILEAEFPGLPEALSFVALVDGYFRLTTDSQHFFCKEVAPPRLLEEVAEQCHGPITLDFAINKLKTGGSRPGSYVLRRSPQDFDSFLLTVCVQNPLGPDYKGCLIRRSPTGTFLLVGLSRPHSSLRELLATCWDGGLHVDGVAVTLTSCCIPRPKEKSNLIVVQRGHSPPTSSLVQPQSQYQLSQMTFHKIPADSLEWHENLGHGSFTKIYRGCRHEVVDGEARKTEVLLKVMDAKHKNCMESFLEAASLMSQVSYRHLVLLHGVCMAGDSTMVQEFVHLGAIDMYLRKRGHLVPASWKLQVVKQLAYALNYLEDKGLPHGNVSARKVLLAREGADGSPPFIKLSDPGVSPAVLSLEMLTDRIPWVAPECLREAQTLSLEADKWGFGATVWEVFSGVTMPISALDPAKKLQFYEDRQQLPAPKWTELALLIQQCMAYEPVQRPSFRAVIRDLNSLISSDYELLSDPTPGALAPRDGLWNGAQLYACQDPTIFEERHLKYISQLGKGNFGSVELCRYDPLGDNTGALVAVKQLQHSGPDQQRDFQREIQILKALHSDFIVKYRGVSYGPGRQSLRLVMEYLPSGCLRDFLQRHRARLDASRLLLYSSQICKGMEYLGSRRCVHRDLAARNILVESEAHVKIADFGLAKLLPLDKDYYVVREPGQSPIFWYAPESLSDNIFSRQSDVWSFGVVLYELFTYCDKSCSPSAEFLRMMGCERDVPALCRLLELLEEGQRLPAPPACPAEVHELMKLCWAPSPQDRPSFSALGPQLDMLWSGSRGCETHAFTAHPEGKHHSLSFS
Experimental: as §1
0.05 nM protein kinase, 50 nM LANCE Ultra ULight™-JAK-1(Tyr1023) peptide, 4 uM ATP, 50 mM HEPES (pH7.5), 10 mM MgCl2, 1 mM EGTA, 2 mM DTT, and 0.01% BRIJ-35.
as §2

Chain of JAK1 protein kinase (P23458 whole entry): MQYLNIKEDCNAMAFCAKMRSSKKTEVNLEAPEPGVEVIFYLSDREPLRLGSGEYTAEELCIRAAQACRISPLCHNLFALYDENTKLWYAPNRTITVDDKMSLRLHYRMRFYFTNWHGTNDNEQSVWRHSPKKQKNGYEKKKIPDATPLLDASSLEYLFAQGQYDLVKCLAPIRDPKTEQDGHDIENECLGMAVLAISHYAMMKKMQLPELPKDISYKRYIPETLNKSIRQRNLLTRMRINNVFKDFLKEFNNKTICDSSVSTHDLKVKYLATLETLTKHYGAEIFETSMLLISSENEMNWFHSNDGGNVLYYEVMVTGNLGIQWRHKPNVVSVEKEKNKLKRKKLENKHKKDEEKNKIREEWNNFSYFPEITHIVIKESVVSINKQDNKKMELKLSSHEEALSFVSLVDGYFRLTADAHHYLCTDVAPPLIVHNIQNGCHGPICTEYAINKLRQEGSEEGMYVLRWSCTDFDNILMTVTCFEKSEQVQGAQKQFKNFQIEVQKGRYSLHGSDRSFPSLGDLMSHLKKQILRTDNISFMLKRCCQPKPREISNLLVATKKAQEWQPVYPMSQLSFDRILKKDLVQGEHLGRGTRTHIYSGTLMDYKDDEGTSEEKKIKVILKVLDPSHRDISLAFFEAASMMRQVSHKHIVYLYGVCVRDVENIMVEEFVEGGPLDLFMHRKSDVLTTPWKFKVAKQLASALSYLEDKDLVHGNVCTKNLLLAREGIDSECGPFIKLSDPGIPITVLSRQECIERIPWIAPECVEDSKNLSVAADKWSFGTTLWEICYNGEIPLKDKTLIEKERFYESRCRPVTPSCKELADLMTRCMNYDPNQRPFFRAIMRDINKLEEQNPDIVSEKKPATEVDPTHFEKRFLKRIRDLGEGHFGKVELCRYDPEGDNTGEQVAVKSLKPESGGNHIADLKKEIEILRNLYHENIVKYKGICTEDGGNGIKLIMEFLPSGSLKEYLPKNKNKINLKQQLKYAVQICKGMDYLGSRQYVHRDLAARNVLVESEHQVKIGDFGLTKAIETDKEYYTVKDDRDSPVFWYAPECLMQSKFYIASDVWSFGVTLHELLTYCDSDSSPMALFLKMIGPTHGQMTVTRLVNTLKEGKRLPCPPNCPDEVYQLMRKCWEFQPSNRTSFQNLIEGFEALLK

SMILES | IC50 (JAK1 protein kinase) [µM] | IC50 (JAK2 protein kinase) [µM] | IC50 (JAK3) [µM]
CC1CCC(C(=O)NCC#N)CN1N(C)c1ncnc2[nH]ccc12 (stereo not shown) [WX26, N-(cyanomethyl)-6-methyl-1-[methyl(7H-pyrrolo[2,3-d]pyrimidin-4-yl)amino]piperidyl-3-formamide] | 0.1 to 1 | > 1 | 0.1 to 1
CN(c1ncnc2[nH]ccc12)N1CCCN(C(=O)CC(F)(F)F)CC1 [WX36] | 0.1 to 1 | > 1 | > 1
CN(c1ncnc2[nH]ccc12)N1CCCC(C(=O)Nc2cccc(C(F)(F)F)c2)C1 (stereo not shown) [WX53, 1-[methyl(7H-pyrrolo[2,3-d]pyrimidin-4-yl)amino]-N-[3-(trifluoromethyl)phenyl]piperidyl-3-formamide] | 0.01 to 0.1 | 0.1 to 1 | 0.1 to 1
CN(c1ncnc2[nH]ccc12)N1CCC(C(=O)NCC(F)(F)F)C1 (single isomer, unassigned) [WX33, (S or R)-1-[methyl(7H-pyrrolo[2,3-d]pyrimidin-4-yl)amino]-N-(2,2,2-trifluoroethyl)pyrrolidyl-3-formamide] | 0.01 to 0.1 | 0.1 to 1 | –
CN(c1ncnc2[nH]ccc12)N1CCCC(C(N)=O)C1 (stereo not shown) [WX11] | 0.1 to 1 | 0.1 to 1 | 0.1 to 1
CN(c1ncnc2[nH]ccc12)N1CCCC(CC(=O)NCC#N)C1 (stereo not shown) [WX18] | 0.1 to 1 | > 1 | 0.1 to 1
COCNC(=O)C1CCCN(N(C)c2ncnc3[nH]ccc23)C1 (stereo not shown) [WX42] | 0.01 to 0.1 | 0.1 to 1 | 0.01 to 0.1
CN(c1ncnc2[nH]ccc12)N1CCC[C@@H](C(=O)NCC(F)(F)C(F)(F)F)C1 (single isomer, unassigned) [WX51, (3R or 3S)-1-[methyl(7H-pyrrole[2,3-d]pyrimidine-4-)amino]-N-(2,2,3,3,3-pentafluoropropyl)piperidyl-3-formamide] | > 1 | > 1 | > 1
CN(c1ncnc2[nH]ccc12)N1CCCC(CC(=O)NCC(F)(F)F)C1 (stereo not shown) [WX17] | 0.1 to 1 | > 1 | 0.1 to 1
CN(c1ncnc2[nH]ccc12)N1CCCC(N2CCCC2=O)C1 (stereo not shown) [WX29, 1-[1-[methyl(7H-pyrrolo[2,3-d]pyrimidin-4-yl)amino]-3-piperidinyl]pyrrolid-2-one] | > 1 | > 1 | 0.1 to 1
CN(c1ncnc2[nH]ccc12)N1CCCN(C(=O)CC#N)CC1 [WX34, 3-(4-(methyl(7H-pyrrolo[2,3-d]pyrimidin-4-yl)amino)-1,4-diazepan-1-yl)-3-carbonyl-propionitrile] | 0.1 to 1 | 0.1 to 1 | 0.1 to 1
CN(c1ncnc2[nH]ccc12)N1CCCC(C(=O)N2CC(O)C2)C1 (stereo not shown) [WX54] | 0.1 to 1 | 0.1 to 1 | 0.1 to 1
CN(c1ncnc2[nH]ccc12)N1CCC[C@H](C(=O)NCC(F)F)C1 (single isomer, unassigned) [WX50, (3S or 3R)-1-[methyl(7H-pyrrole[2,3-d]pyrimidine-4-)amino]-N-(2,2-difluoroethyl)piperidyl-3-formamide] | 0.1 to 1 | > 1 | 0.1 to 1
CC(C)(C)OC(=O)N1CC2CN(Nc3ncnc4[nH]ccc34)CC2C1 (stereo not shown) [WX48, 5-[[7H-pyrrole[2,3-d]pyrimidine-4-]amino]-hexahydropyrrolo[3,4-c]pyrrole-2(1H)-tert-butyl formate] | > 1 | > 1 | > 1
CN(c1ncnc2[nH]ccc12)N1CCC(NC(=O)CC#N)CC1 [WX25, 2-cyano-N-(1-(methyl(7H-pyrrolo[2,3-d]pyrimidin-4-yl)amino)piperidin-4-yl)acetamide] | 0.01 to 0.1 | 0.1 to 1 | 0.1 to 1
CN(c1ncnc2[nH]ccc12)N1CCCC(C)(C(=O)NCC(F)(F)F)C1 (stereo not shown) [WX38, 3-methyl-11-(methyl(7H-pyrrolo[2,3-d]pyrimidine-4-yl)amino)-N-(2,2,2-trifluoroethyl)piperidyl-3-formamide] | > 1 | > 1 | > 1
CN(c1ncnc2[nH]ccc12)N1CCCC(NC(=O)CC(F)(F)F)C1 (stereo not shown) [WX13, 3,3,3-trifluoroethyl-N-(1-(methyl(7H-pyrrolo[2,3-d]pyrimidin-4-yl)amino)piperidyl-3-)propylcarboxamide] | 0.1 to 1 | > 1 | 0.1 to 1
CN(c1ncnc2[nH]ccc12)N1CCCC(C(=O)NCCC#N)C1 (stereo not shown) [WX16, N-(cyanoethyl)-1-(methyl(1H-pyrrole[2,3-d]pyridyl-4-)amino)piperidyl-3-formamide] | 0.01 to 0.1 | – | 0.1 to 1

Results, then the molecule that gave them:

IC50 (JAK1 protein kinase) [µM] | IC50 (JAK2 protein kinase) [µM] | IC50 (JAK3) [µM] | SMILES
0.01 to 0.1 | 0.1 to 1 | 0.01 to 0.1 | CN(c1ncnc2[nH]ccc12)N1CCC(C(=O)NCC#N)CC1 [WX20, N-(cyanomethyl)-1-(methyl(7H-pyrrolo[2,3-d]pyrimidin-4-yl)amino)piperidyl-4-formamide]
0.01 to 0.1 | 0.1 to 1 | 0.01 to 0.1 | CN(CC(F)(F)F)C(=O)C1CCCN(N(C)c2ncnc3[nH]ccc23)C1 (stereo not shown) [WX02, N-methyl-1-(methyl(7H-pyrrolo[2,3-d]pyrimidin-4-yl)amino)-(2,2,2-trifluoroethyl)piperidyl-3-formamide]
≤ 0.01 | 0.01 to 0.1 | < 0.01 | CN(c1ncnc2[nH]ccc12)N1CCCC(C(=O)NCC(F)F)C1 (stereo not shown) [WX47, 1-[methyl(7H-pyrrole[2,3-d]pyrimidine-4-)amino]-N-(2,2-difluoroethyl)piperidyl-3-formamide]
0.01 to 0.1 | 0.1 to 1 | 0.1 to 1 | CN(c1ncnc2[nH]ccc12)N1CCC(NC(=O)CC(F)(F)F)CC1 [WX24]
0.01 to 0.1 | 0.1 to 1 | 0.1 to 1 | O=C(NCC(F)(F)F)C1CCCN(N(c2ncnc3[nH]ccc23)C2CC2)C1 (stereo not shown) [WX58, 1-[cyclopropyl(7H-pyrrolo[2,3-d]pyrimidin-4-yl)amino]-N-(2,2,2-trifluoroethyl)piperidyl-3-formamide]
0.01 to 0.1 | 0.1 to 1 | 0.1 to 1 | CN(c1ncnc2[nH]ccc12)N1CCOC(C(=O)NCC(F)(F)F)C1 (stereo not shown) [WX41, 4-(methyl(7H-pyrrolo[2,3-d]pyrimidin-4-yl)amino)-N-(2,2,2-trifluoroethyl)morpholine-2-formamide]
< 0.01 | 0.01 to 0.1 | 0.01 to 0.1 | CN(c1ncnc2[nH]ccc12)N1CCC(C(=O)NCC#N)C1 (stereo not shown) [WX30, N-(cyanomethyl)-1-[methyl(7H-pyrrolo[2,3-d]pyrimidin-4-yl)amino]pyrrolidyl-3-formamide]
< 0.01 | 0.01 to 0.1 | 0.01 to 0.1 | O=C(NCC(F)(F)F)C1CCCN(Nc2ncnc3[nH]ccc23)C1 (stereo not shown) [WX01, 1-((7H-pyrrolo[2,3-d]pyrimidin-4-yl)amino)-N-(2,2,2-trifluoroethyl)piperidyl-3-formamide]
< 0.01 | 0.01 to 0.1 | 0.01 to 0.1 | CN(c1ncnc2[nH]ccc12)N1CCC[C@H](C(=O)NCC(F)(F)C(F)(F)F)C1 (single isomer, unassigned) [WX52, (3S or 3R)-1-[methyl(7H-pyrrole[2,3-d]pyrimidine-4-)amino]-N-(2,2,3,3,3-pentafluoropropyl)piperidyl-3-formamide]
